The values below come from article PMC10361207, “Cannabinoid and Opioid Receptor Affinity and Modulation of Cancer-Related Signaling Pathways of Machaeriols and Machaeridiols from Machaerium Pers” (Molecules, 2023).

Molecules are shown by their SMILES. Converted amounts (≈) assume the structure as drawn. Some results are limits rather than exact numbers.

The target of data set [1] is T1, κ opioid receptor (Homo sapiens, UniProt P41145).
T1 construct: host or cells: HEK293, stably transfected; membranes
The class given is binding. The conditions noted are these: 10 μM; [3H]-U-69,593. As to the method:
(§1) HEK293 cells stably transfected with δ, κ and μ opioid subtypes were a generous gift from Roth Laboratories (University of North Carolina at Chapel Hill, N.C., USA). CB and opioid cells were maintained as previously described.
Membranes were purified by first washing the cells with cold PBS and scraping the cells into cold 50 mM Tris-HCl, pH 7.4 buffer, which was centrifuged at 5200× g for 10 min at 4 °C; next, the supernatant was discarded, and the pellet was washed with more Tris-HCl buffer, homogenized via a Sonic Dismembrator (Fisher Scientific, Pittsburgh, PA, USA) and then centrifuged at 24,000× g for 40 min at 4 °C. […] The total membrane protein concentration was measured using a Pierce BCA Protein Assay Kit (Thermo Scientific, Rockford, IL, USA) as per the manufacturer’s protocol.
Cannabinoid and opioid competitive radioligand binding assays were performed as previously described. […] Percent displacements were evaluated for all the cannabinoid and opioid subtypes with a triplicate of a fixed concentration (10 µg/mL for extracts and fractions and 10 μM for purified compounds). […] The percent displacement was calculated to represent the ability of the samples to displace the radioligand binding for a given cannabinoid or opioid receptor subtype.
The percent displacement was calculated as follows: 100−binding of compound−nonspecific binding/specific binding×100 […]

The target in data set [2] is T2, μ opioid receptor (Homo sapiens, UniProt P35372).
T2 construct: host or cells: HEK293, stably transfected; membranes
Nature of the data set: biochemical. It is filed as binding. As to the method:
as §1
Membranes were purified by first washing the cells with cold PBS and scraping the cells into cold 50 mM Tris-HCl, pH 7.4 buffer, which was centrifuged at 5200× g for 10 min at 4 °C; next, the supernatant was discarded, and the pellet was washed with more Tris-HCl buffer, homogenized via a Sonic Dismembrator (Fisher Scientific, Pittsburgh, PA, USA) and then centrifuged at 24,000× g for 40 min at 4 °C. Finally, the pellet was re-suspended in cold 50 mM Tris-HCl buffer, aliquoted into 2 mL vials and stored at −80 °C. The total membrane protein concentration was measured using a Pierce BCA Protein Assay Kit (Thermo Scientific, Rockford, IL, USA) as per the manufacturer’s protocol.
Cannabinoid and opioid competitive radioligand binding assays were performed as previously described. Saturation experiments were performed for all the receptors to determine the receptor concentration and radioligand dissociation constant (Kd) for the membrane. Percent displacements were evaluated for all the cannabinoid and opioid subtypes with a triplicate of a fixed concentration (10 µg/mL for extracts and fractions and 10 μM for purified compounds). […] Control/test compounds were dissolved in DMSO at 10 μg/mL for extracts and fractions and 10 μM for purified compounds. […] The percent displacement was calculated to represent the ability of the samples to displace the radioligand binding for a given cannabinoid or opioid receptor subtype.
The percent displacement was calculated as follows: 100−binding of compound−nonspecific binding/specific binding×100
The competitive binding assays were performed using 12 serial dilutions of each compound ranging from 0.002 to 300 μM (control compounds were serially diluted from 10 μM to 0.06 nM). The cannabinoid assays were incubated for 90 min at 37 °C with gentle agitation. The opioid assays were incubated for 60 min at room temperature. Bound radioligands were collected on GF/C (cannabinoid) or GF/B plates (opioid) and washed 10 times with ice-cold 50 mM Tris-HCl (pH 7.4)/0.1% BSA (cannabinoid) or ice-cold 50 mM Tris-HCl (pH 7.4) (opioid). Radiodetection was measured with 50 µL (cannabinoid) or 25 µL (opioid) of MicroScint^TM-20 on a TopCount NXT HTS Microplate Scintillation Counter (PerkinElmer, Waltham, MA, USA). The IC50 and Ki values were calculated via a non-linear curve fit model using GraphPad Prism 5.0 software (GraphPad Software, Inc., San Diego, CA, USA). Each compound was tested in triplicate unless stated otherwise.

A short description of data set [3]: Cytotoxicity, Neutral Red, HeLa. It is filed as cell-based. The conditions noted are these: human, HeLa cervical cancer cells, Na = not active up to 50 µg/mL. As to the method:
(§2) In vitro cytotoxic activity was determined against five human cancer cell lines—malignant melanoma (SK-MEL), epidermal carcinoma oral (KB), ductal carcinoma breast (BT-549), ovary carcinoma (SKOV-3) and cervical (HeLa) cancer cells—and two non-cancerous kidney cell lines (LLC-PK1 and Vero). All cell lines were obtained from the American Type Culture Collection (ATCC, Rockville, MD, USA). Each assay was performed in 96-well tissue culture-treated microplates. The cells were seeded at a density of 25,000 cells/well and incubated for 24 h. Samples at different concentrations were added, and the cells were incubated again for 48 h. At the end of the incubation, the cell viability was determined using Neutral Red dye according to a modification of the procedure used by Borenfreund et al.. IC50 values were determined from dose–response curves of the percent growth inhibition against test concentrations. Doxorubicin was used as a positive control, while DMSO was used as the negative (vehicle) control.

A short description of data set [4]: Cytotoxicity, Neutral Red, LLC-PK1. It is filed as cell-based. As to conditions: pig, LLC-PK1 kidney epithelial cells, Na = not active up to 50 µg/mL. The procedure: as §2
Data set [5] is described as follows: Cytotoxicity, Neutral Red, Vero. The class given is cell-based. As to conditions: monkey, Vero kidney fibroblasts, Na = not active up to 50 µg/mL. The procedure: as §2
The test system of data set [6] is Stat3. Nature of the data set: Luciferase reporter assay, Stat3, T98G. It is filed as cell-based. The conditions noted are these: Homo sapiens; T98G cells; inducer IL6. As to the method: (§3) Hela cells (or T98G cells) from ATCC were plated in white opaque 384-well plates at a density of 4300 cells/well in 30 µL of growth medium (DMEM with 10% FBS and 1% Pen/Strep). The next day, the medium was aspirated and replaced with DMEM containing 1% FBS. The cells were transfected with respective plasmids using X-tremeGENE HP DNA transfection reagent (Roche). After 24 h of transfection, the test agents were added to the transfected cells, followed 30 min later by an inducing agent: interleukin 6 (IL-6) for Stat3, TGF-β for Smad, m-wnt3a for Wnt and PMA for AP-1, NF-κB, E2F, Myc, ETS, Notch and Hedgehog. No inducer was added for FoXO and pTK. After 4 h or 6 h of induction, the cells were lysed via the addition of the One-Glo luciferase assay system (Promega; Madison, WI). The light output was detected in a GloMax®-Multi+ Detection System with Instinct® Software (Promega E 8051). This luciferase assay determines if the test agent is able to inhibit the activation of cancer-related signaling pathways. In the case of FoxO, the enhanced luciferase activity via the test agent was assessed.
A general note: A reporter such as luciferase makes a cellular process visible.

In data set [7] the test system is Smad2/3. The experiment in a line: Luciferase reporter assay, Smad2/3, T98G. The class given is cell-based. The conditions noted are these: Homo sapiens; T98G cells; inducer TGF-beta. As to the method: as §3
Data set [8] concerns AP-1. Nature of the data set: Luciferase reporter assay, AP-1, T98G. It is filed as cell-based. The conditions noted are these: T98G cells; inducer PMA. As to the method: as §3
Data set [9] has as its system NF-κB. Nature of the data set: Luciferase reporter assay, NF-κB, T98G. It is filed as cell-based. The conditions noted are these: Homo sapiens; T98G cells; inducer PMA. The procedure:
as §3

Data set [10] deals with E2F. The experiment in a line: Luciferase reporter assay, E2F, T98G. The class given is cell-based. The conditions noted are these: Homo sapiens; T98G cells; inducer PMA. The procedure: as §3
Data set [11] relates to Myc. The experiment in a line: Luciferase reporter assay, Myc, T98G. It is filed as cell-based. The conditions noted are these: Homo sapiens; T98G cells; inducer PMA. As to the method:
as §3

For data set [12], the system named is ETS. Nature of the data set: Luciferase reporter assay, ETS, T98G. It is filed as cell-based. The conditions noted are these: Homo sapiens; T98G cells; inducer PMA. The procedure:
as §3

In data set [13] the test system is Notch. The experiment in a line: Luciferase reporter assay, Notch, T98G. It is filed as cell-based. As to conditions: Homo sapiens; T98G cells; inducer PMA. The procedure: as §3
The subject of data set [14] is FoxO. The experiment in a line: Luciferase reporter assay, FoxO, T98G. The class given is cell-based. The conditions noted are these: Homo sapiens; T98G cells; no inducer; dash: no activity detected; read-out: IC50, FoxO (None). As to the method: as §3
The test system of data set [15] is Wnt. Nature of the data set: Luciferase reporter assay, Wnt, T98G. The class given is cell-based. The conditions noted are these: T98G cells, inducer m-wnt3a, dash: not inhibited by more than 40% at 50 µmol/L. The procedure:
as §3

For data set [16], the system named is Hedgehog. The experiment in a line: Luciferase reporter assay, Hedgehog, T98G. It is filed as cell-based. The conditions noted are these: Homo sapiens; T98G cells; inducer PMA. The procedure:
as §3

T2 sequence (P35372 whole entry): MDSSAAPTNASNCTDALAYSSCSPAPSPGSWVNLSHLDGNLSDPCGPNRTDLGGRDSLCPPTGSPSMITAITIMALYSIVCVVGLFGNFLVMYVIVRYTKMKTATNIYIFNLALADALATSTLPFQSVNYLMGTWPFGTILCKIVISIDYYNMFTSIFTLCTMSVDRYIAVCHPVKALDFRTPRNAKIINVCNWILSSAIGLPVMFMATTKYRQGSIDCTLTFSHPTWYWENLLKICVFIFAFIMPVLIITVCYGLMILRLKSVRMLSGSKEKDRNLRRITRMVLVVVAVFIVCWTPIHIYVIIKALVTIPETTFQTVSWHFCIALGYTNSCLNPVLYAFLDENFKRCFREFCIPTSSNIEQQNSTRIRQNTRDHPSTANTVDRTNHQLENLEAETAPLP
T1 sequence (P41145 whole entry): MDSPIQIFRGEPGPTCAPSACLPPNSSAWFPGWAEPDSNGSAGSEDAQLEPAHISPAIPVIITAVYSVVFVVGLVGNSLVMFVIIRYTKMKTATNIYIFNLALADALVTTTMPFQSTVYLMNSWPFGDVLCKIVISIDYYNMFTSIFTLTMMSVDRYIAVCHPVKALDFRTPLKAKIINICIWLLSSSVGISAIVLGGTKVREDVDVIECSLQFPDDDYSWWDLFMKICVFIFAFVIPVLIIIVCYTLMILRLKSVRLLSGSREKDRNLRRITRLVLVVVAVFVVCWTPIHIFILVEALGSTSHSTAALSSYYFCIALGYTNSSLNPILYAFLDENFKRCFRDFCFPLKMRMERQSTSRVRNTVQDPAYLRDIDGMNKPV

Consider `C[C@H]1CC[C@H]2[C@H](C1)c1c(O)cc(/C=C/c3ccccc3O)cc1OC2(C)C` [compound 3, machaeriol C], for which, in [1], the “Percent displacement, ĸ” value worked out at 6.4%.
Consider `C=C(C)[C@H]1CC[C@H](C)C[C@@H]1c1c(O)cc(/C=C/c2ccccc2O)cc1O` [compound 6, machaeridiol B], for which, in data set [2] (10 μM, [3H]-DAMGO), the “Percent displacement, µ” value is given as 27.6%. Also, in data set [2] (NA = not active, read-out: μ Ki ± SEM), the Ki is 4.73 ± 0.84 µM. For the same molecule, the figures for the IC50 at 48 h in data set [3], in [4] and in data set [5] were 37 µg/mL (≈ 102 µM), 37 µg/mL (≈ 102 µM) and 47 µg/mL (≈ 129 µM), respectively. The IC50 turned out to be 1.4 µM in data set [6]; 3 µM in data set [7]; 4.2 µM in [8]; 4 µM in data set [9]; 0.7 µM in [10]; 2 µM in [11]. For the same molecule, the IC50 in data set [12] was 5.9 µM; in data set [13] it was 4.6 µM; in data set [14] it was > 50 µM; in [15] (Homo sapiens), > 50 µM; in data set [16], 5 µM. The “IC50, Wnt (m-wnt3a)” value in [15] is “inactive”.

A word on the Ki: it is a dissociation constant, usually derived from enzyme kinetics or from competition with a known ligand. As a reminder, the IC50 is the midpoint of a concentration-inhibition curve.
